Assay results reported in PubChem BioAssay (NCI).
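Each compound was tested at five concentrations against cells in 96-well plates for 48 hours. Here, GI50 denotes the concentration required for 50% inhibition of growth. TGI is the concentration that stops growth completely.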

What was measured:
Assay in all cases: DTP human tumour cell line panel, 48 h
SF-268 CNS = tested on: SF-268 CNS
COLO 205 colon = tested on: COLO 205 colon
HCT-15 colon = tested on: HCT-15 colon
IGROV1 ovarian = tested on: IGROV1 ovarian
T-47D breast = tested on: T-47D breast
SK-OV-3 ovarian = tested on: SK-OV-3 ovarian
BT-549 breast = tested on: BT-549 breast
SK-MEL-28 melanoma = tested on: SK-MEL-28 melanoma
SN12C renal = tested on: SN12C renal
UACC-62 melanoma = tested on: UACC-62 melanoma
HT29 colon = tested on: HT29 colon
K-562 leukemia = tested on: K-562 leukemia
SF-295 CNS = tested on: SF-295 CNS
EKVX NSCLC = tested on: EKVX NSCLC
HOP-92 NSCLC = tested on: HOP-92 NSCLC
OVCAR-4 ovarian = tested on: OVCAR-4 ovarian
MCF7 breast = tested on: MCF7 breast
PC-3 prostate = tested on: PC-3 prostate
A549 NSCLC = tested on: A549 NSCLC
786-0 renal = tested on: 786-0 renal
SK-MEL-5 melanoma = tested on: SK-MEL-5 melanoma
CAKI-1 renal = tested on: CAKI-1 renal
KM12 colon = tested on: KM12 colon
OVCAR-8 ovarian = tested on: OVCAR-8 ovarian
SF-539 CNS = tested on: SF-539 CNS
RPMI-8226 leukemia = tested on: RPMI-8226 leukemia
TK-10 renal = tested on: TK-10 renal
HL-60(TB) leukemia = tested on: HL-60(TB) leukemia
HS 578T breast = tested on: HS 578T breast
MDA-MB-435 = tested on: MDA-MB-435
CCRF-CEM leukemia = tested on: CCRF-CEM leukemia
SW-620 colon = tested on: SW-620 colon
RXF 393 renal = tested on: RXF 393 renal
U251 CNS = tested on: U251 CNS
DU-145 prostate = tested on: DU-145 prostate
NCI-H23 lung = tested on: NCI-H23 lung
A498 renal = tested on: A498 renal
HCT-116 colon = tested on: HCT-116 colon
SK-MEL-2 melanoma = tested on: SK-MEL-2 melanoma
OVCAR-5 ovarian = tested on: OVCAR-5 ovarian
NCI-H226 lung = tested on: NCI-H226 lung
ACHN renal = tested on: ACHN renal
OVCAR-3 ovarian = tested on: OVCAR-3 ovarian
NCI/ADR-RES ovarian = tested on: NCI/ADR-RES ovarian
HOP-62 NSCLC = tested on: HOP-62 NSCLC
SNB-75 CNS = tested on: SNB-75 CNS
LOX IMVI melanoma = tested on: LOX IMVI melanoma
M14 melanoma = tested on: M14 melanoma
SNB-19 CNS = tested on: SNB-19 CNS
UACC-257 melanoma = tested on: UACC-257 melanoma
NCI-H460 lung = tested on: NCI-H460 lung
MDA-MB-231 breast = tested on: MDA-MB-231 breast
MOLT-4 leukemia = tested on: MOLT-4 leukemia

Compound: CC1=C2[C@H]3OC(=O)[C@@H](C)[C@@H]3CC[C@@]2(C)C=CC1=O
- GI50 (SF-268 CNS): > 100 µM
- TGI (SF-268 CNS): > 100 µM
- GI50 (COLO 205 colon): > 100 µM
- TGI (COLO 205 colon): > 100 µM
- GI50 (HCT-15 colon): > 100 µM
- TGI (HCT-15 colon): > 100 µM
- GI50 (IGROV1 ovarian): > 100 µM
- TGI (IGROV1 ovarian): > 100 µM
- GI50 (T-47D breast): > 100 µM
- TGI (T-47D breast): > 100 µM
- GI50 (SK-OV-3 ovarian): > 100 µM
- TGI (SK-OV-3 ovarian): > 100 µM
- GI50 (BT-549 breast): > 100 µM
- TGI (BT-549 breast): > 100 µM
- GI50 (SK-MEL-28 melanoma): > 100 µM
- TGI (SK-MEL-28 melanoma): > 100 µM
- GI50 (SN12C renal): > 100 µM
- TGI (SN12C renal): > 100 µM
- GI50 (UACC-62 melanoma): > 100 µM
- TGI (UACC-62 melanoma): > 100 µM
- GI50 (HT29 colon): > 100 µM
- TGI (HT29 colon): > 100 µM
- GI50 (K-562 leukemia): > 100 µM
- TGI (K-562 leukemia): > 100 µM
- GI50 (SF-295 CNS): > 100 µM
- TGI (SF-295 CNS): > 100 µM
- GI50 (EKVX NSCLC): > 100 µM
- TGI (EKVX NSCLC): > 100 µM
- GI50 (HOP-92 NSCLC): > 100 µM
- TGI (HOP-92 NSCLC): > 100 µM
- GI50 (OVCAR-4 ovarian): > 100 µM
- TGI (OVCAR-4 ovarian): > 100 µM
- GI50 (MCF7 breast): > 100 µM
- TGI (MCF7 breast): > 100 µM
- GI50 (PC-3 prostate): > 100 µM
- TGI (PC-3 prostate): > 100 µM
- GI50 (A549 NSCLC): > 100 µM
- TGI (A549 NSCLC): > 100 µM
- GI50 (786-0 renal): > 100 µM
- TGI (786-0 renal): > 100 µM
- GI50 (SK-MEL-5 melanoma): > 100 µM
- TGI (SK-MEL-5 melanoma): > 100 µM
- GI50 (CAKI-1 renal): > 100 µM
- TGI (CAKI-1 renal): > 100 µM
- GI50 (KM12 colon): > 100 µM
- TGI (KM12 colon): > 100 µM
- GI50 (OVCAR-8 ovarian): > 100 µM
- TGI (OVCAR-8 ovarian): > 100 µM
- GI50 (SF-539 CNS): > 100 µM
- TGI (SF-539 CNS): > 100 µM
- GI50 (RPMI-8226 leukemia): > 100 µM
- TGI (RPMI-8226 leukemia): > 100 µM
- GI50 (TK-10 renal): > 100 µM
- TGI (TK-10 renal): > 100 µM
- GI50 (HL-60(TB) leukemia): > 100 µM
- TGI (HL-60(TB) leukemia): > 100 µM
- GI50 (HS 578T breast): > 100 µM
- TGI (HS 578T breast): > 100 µM
- GI50 (MDA-MB-435): > 100 µM
- TGI (MDA-MB-435): > 100 µM
- GI50 (CCRF-CEM leukemia): > 100 µM
- TGI (CCRF-CEM leukemia): > 100 µM
- GI50 (SW-620 colon): > 100 µM
- TGI (SW-620 colon): > 100 µM
- GI50 (RXF 393 renal): > 100 µM
- TGI (RXF 393 renal): > 100 µM
- GI50 (U251 CNS): > 100 µM
- TGI (U251 CNS): > 100 µM
- GI50 (DU-145 prostate): > 100 µM
- TGI (DU-145 prostate): > 100 µM
- GI50 (NCI-H23 lung): > 100 µM
- TGI (NCI-H23 lung): > 100 µM
- GI50 (A498 renal): > 100 µM
- TGI (A498 renal): > 100 µM
- GI50 (HCT-116 colon): > 100 µM
- TGI (HCT-116 colon): > 100 µM
- GI50 (SK-MEL-2 melanoma): > 100 µM
- TGI (SK-MEL-2 melanoma): > 100 µM
- GI50 (OVCAR-5 ovarian): > 100 µM
- TGI (OVCAR-5 ovarian): > 100 µM
- GI50 (NCI-H226 lung): > 100 µM
- TGI (NCI-H226 lung): > 100 µM
- GI50 (ACHN renal): > 100 µM
- TGI (ACHN renal): > 100 µM
- GI50 (OVCAR-3 ovarian): > 100 µM
- TGI (OVCAR-3 ovarian): > 100 µM
- GI50 (NCI/ADR-RES ovarian): > 100 µM
- TGI (NCI/ADR-RES ovarian): > 100 µM
- GI50 (HOP-62 NSCLC): > 100 µM
- TGI (HOP-62 NSCLC): > 100 µM
- GI50 (SNB-75 CNS): > 100 µM
- TGI (SNB-75 CNS): > 100 µM
- GI50 (LOX IMVI melanoma): > 100 µM
- TGI (LOX IMVI melanoma): > 100 µM
- GI50 (M14 melanoma): > 100 µM
- TGI (M14 melanoma): > 100 µM
- GI50 (SNB-19 CNS): > 100 µM
- TGI (SNB-19 CNS): > 100 µM
- GI50 (UACC-257 melanoma): > 100 µM
- TGI (UACC-257 melanoma): > 100 µM
- GI50 (NCI-H460 lung): > 100 µM
- TGI (NCI-H460 lung): > 100 µM
- GI50 (MDA-MB-231 breast): > 100 µM
- TGI (MDA-MB-231 breast): > 100 µM
- GI50 (MOLT-4 leukemia): > 100 µM
- TGI (MOLT-4 leukemia): > 100 µM
